Measurements reported in patent US11590164B2, “Topical antimicrobial formulations containing monovalent copper ions and systems for generating monovalent copper ions” (priority 2016, dated 2023).

Assays:
E. coli MG 1655 = test: Petri dish technique, LB agar with ascorbic acid and CuSO4 covered by oil; type: cell-based, Escherichia coli; settings: for Vitality of E. coli MG 1655: 24 h
Method: (§1) As control groups, bacteria were incubated under the same conditions without ascorbic acid, or without CuSO4. In this series of experiments ascorbic acid acted as the reducing agent according to the following reaction: 2Cu^2++ascorbic acid→2Cu^++dehydro ascorbic acid (2) The viability of bacteria was detected by the presence or absence of colonies.
The experiment was repeated using a different reducing agent (ascorbic acid instead of metal copper with acetonitrile) and different technique of growing bacteria on Petri dishes with LB agar. The ascorbic acid embedded in the agar reduces copper as was shown in Equation 2.

[1] = system: Escherichia coli strain MG1655; test: Disc diffusion antibiotic sensitivity test; type: cell-based; settings: for Estimate of the sterile area beyond the disk: aerobic, 37° C., 24 h incubation, 6 mm disk
Method: 1. Introduction: • The antibacterial effect was measured by an agar disk diffusion method. Escherichia coli strain MG1655 was used as a model organism. Whatman's 6 mm disks were used. The incubation of Petri dishes (with disks) was done in aerobic conditions, at 37° C. After 24 h incubation, the radiuses of sterile zones on agar were measured.
2.1 Preparation of bacterial suspension • 100 μl of bacterial suspension (containing 10^4-10^5 bacterial cells per plate) was used for testing. Cells of E. coli MG1655 were grown overnight as a starter on LB (Luria broth) media at 37° C. with a shaker. After 12-18 hhours incubation, 100 μL suspension were added to 9.9 mL of fresh LB media. Bacterial cells designated for testing were grown in fresh LB at 37° C. with a shaker for 2-3 h to final OD (600 nm) 0.2-0.4. This cell suspension was diluted by a factor of 100 using 0.9% NaCl, and 100 μL of the diluted suspension was distributed on agar surface before adding a disk.
2.2 Preparation of Petri dishes • LB agar was prepared according to a standard procedure, autoclaved and stored afterwards up to 3 h at 55° C. The needed substances (like ascorbic acid) were added into agar before pouring into dishes. 15 ml agar was added to each 90 mm Petri dish. Dishes were dried for at least 1 h in a biosafety cabinet by sterile air flow.
2.3 Formulation application • To the preliminary dried dishes (a described in 2.2) a freshly prepared bacterial culture was added (as described in 2.1). Immediately after absorption of the suspension into the agar, a disk was placed at the center of the dish. In case where metallic copper was tested, it was placed first in the form of a small circular wire at the dish center and pressed into the agar, and covered by a disk afterwards. 10 μl of a Cu^2+ solution was placed on the disk.
2.4 Measurement of the sterile zone size • All dishes after 24 h incubation (as described in 2.1) were photographed and the images are analyzed. The absolute size of the sterile zones was estimated in comparison with the disk size (6 mm).
The results were presented as sterile area in mm^2 (FIG. 5 and Table 2) or as radiuses in mm (FIGS. 7-10) of the sterile zones on agar.

E. coli [2] = test: Kinetics of bactericidal effect (time-kill curve), syringes technique; type: cell-based, Escherichia coli
Method: (§2) Syringes technique: Bacteria cells were incubated at room temperature under anaerobic conditions in LB Bruce growth substance syringes. To ensure anaerobic conditions, Argon gas (UHP) was bubbled through a sterile filter into a syringe filled with a growth substance. Cu^1+ was formed in situ, the process was started with de-aerating the aqueous solutions containing a mixture of CuSO4 as the source for Cu^2+ ions, metallic copper and Acetonitrile as a stabilizing ligand, prior to microorganisms insertion, according to the following reaction:
(§3) Reference bacteria were incubated under the same condition in a growth substance containing: Metallic copper (4×2×0.1 cm), Acetonitrile, CuSO4 or AgNO3.
(§4) Bacteria count was measured at time intervals using a series of dilutions, and colonies count on LB Agar was incubated at 37° C.
Because of the chemical similarity of copper and silver as well as their clinical use as antibacterial agents, their antibacterial effect over time was compared. The survival of test bacteria in each syringe was sampled in time intervals of 1, 20, 40 and 85 hours from inoculation. Time-kill curve was constructed by plotting the viable cell count of bacteria (Δ log 10 cfu/ml) over time (FIG. 1).

Staphylococcus aureus = test: Growth kinetics in anaerobic conditions, syringe technique; type: cell-based
Method: as §2, §3, §4
When comparing with FIG. 2 it seems that the difference between the effect of Cu^1+ and Cu^2+ is more pronounced in gram (+) bacteria than in gram(−).

Saccharomyces cerevisiae = test: Viable cell count over time, syringes technique; type: cell-based
E. coli [3] = test: Syringes technique, anaerobic incubation of E. coli with copper ions (vitality / MIC); type: cell-based, Escherichia coli
Method: as §2
One must notice that each Cu^2+ results in two Cu^1+ ions.
as §3, §4
The vitality of Escherichia coli, Staphylococcus aureus (bacteria) and Saccharomyces cerevisiae (yeast) was tested in anaerobic conditions using syringe technique and Petri dish technique.
The MIC of Cu^1+ and Cu^2+ was measured by using four syringes with decreasing concentration of the copper ions from 8 to 2 mM.
MIC of Cu^1+ found to be around 4 mM where the MIC of Cu^2+ was between 6 mM and 8 mM.

S. aureus = test: Petri dish technique, LB agar with ascorbic acid; type: cell-based, Staphylococcus aureus; settings: 24 h
Method: as §1, with “Petri dish technique: Bacteria were incubated at 37° C. in Petri dish with LB Agar containing 20 mM ascorbic acid and 0.05-3.5 mM CuSO4 covered by oil, to prevent air oxygen penetration. As” for “As”
The MIC of Cu^1+ is measured by using Petri dishes with LB agar. The ascorbic acid embedded in the agar reduces copper as was shown in Equation 2.

[4] = 4 mM ion, 24 h incubation, 0.5% (v/v) acetonitrile

O=S(=O)([O-])[O-].[Cu+2] [CuSO4]
Vitality of E. coli MG 1655 (E. coli MG 1655; Ascorbic acid 0 mM, CuSO4 3.0 mM): ++ (a fully covered plate, estimated as 2×10^7 cfu/ml)
Vitality of E. coli MG 1655 (E. coli MG 1655; Ascorbic acid 0 mM, CuSO4 4.0 mM): −
Vitality of E. coli MG 1655 (E. coli MG 1655; Ascorbic acid 20 mM, CuSO4 0.01 mM): ++ (a fully covered plate, estimated as 2×10^7 cfu/ml)
Vitality of E. coli MG 1655 (E. coli MG 1655; Ascorbic acid 20 mM, CuSO4 0.05 mM): −

O=C1O[C@H]([C@@H](O)CO)C(O)=C1O [Ascorbic acid, ascorbic acid, reference compound]
Vitality of E. coli MG 1655 (E. coli MG 1655; Ascorbic acid 20 mM, CuSO4 0 mM): ++ (a fully covered plate, estimated as 2×10^7 cfu/ml)

copper(II) gluconate [copper (II) gluconate]
minimal recommended concentration of copper (II) gluconate ([1]; in emulsifying base ointment with ascorbyl palmitate and 2% copper powder): 1.25 % w/w

[Ag+] [Ag^1+, reference compound]
viable cells (E. coli [2]; after 85 hours): no viable cells were found
Estimate of the sterile area beyond the disk [1]: 27.1 mm^2

[Cu+] [Cu^1+]
bactericidal effect of reduced copper ions relative to Cu^2+ (E. coli MG 1655; 24 h after incubation): eight times higher
bacteriostatic effect (Staphylococcus aureus): very little bacteriostatic effect
incubation time to depletion of bacterial count (Staphylococcus aureus): ≤ 1 h
susceptibility of the yeast compared with the bacteria studied (Saccharomyces cerevisiae): more susceptible
presence or absence of E. coli colonies (E. coli [3]; 2 mM ion, 24 h incubation, 0.5% (v/v) acetonitrile): ++ (a fully covered plate, estimated as 2×10^7 cfu/ml)
number of colonies on the plate (E. coli [3]; [4]): 107 colonies
presence or absence of E. coli colonies (E. coli [3]; [4]): ++ (a fully covered plate, estimated as 2×10^7 cfu/ml)
presence or absence of E. coli colonies (E. coli [3]; 6 mM ion, 24 h incubation, 0.5% (v/v) acetonitrile): −
presence or absence of E. coli colonies (E. coli [3]; 6 mM ion, 24 h incubation, 0.5% (v/v) acetonitrile, listed as Cu^+2): + (partially covered plate but still uncountable, estimated as 1×10^4 cfu/ml)
presence or absence of E. coli colonies (E. coli [3]; 8 mM ion, 24 h incubation, 0.5% (v/v) acetonitrile): −
MIC (E. coli [3]; 24 h incubation, 0.5% (v/v) acetonitrile, syringes): around 4 mM
antibacterial potency compared with 8 mM and 16 mM Ag^+ (E. coli [2]; 8 mM, 1 h incubation): more potent antibacterial agent
viable bacteria cells (E. coli [2]; 20 hours after inoculation): no viable bacteria cell was found at all
reduction of the initial bacteria inoculums (E. coli [2]; after 1 h of incubation, anaerobic): 7 log cfu/ml
live bacteria remaining in the syringe (E. coli [2]; after 85 hours): 1 log cfu/ml
S. aureus vitality (S. aureus; 0.05 mM with ascorbic acid 20 mM): ++ (a fully covered plate, estimated as 2×10^7 cfu/ml)
S. aureus vitality, number of colonies (S. aureus; 0.1 mM with ascorbic acid 20 mM): 45
S. aureus vitality (S. aureus; 0.3 mM with ascorbic acid 20 mM): −
Estimate of the sterile area beyond the disk [1]: 359.3 mm^2
Estimate of the sterile area beyond the disk ([1]; listed as Cu^2+): 25.9 mm^2
Estimate of the sterile area beyond the disk ([1]; listed as Cu^+2): 25.9 mm^2
improvement in the biocidal effect compared with Ag^1+ and Cu^2+ ([1]; disk diffusion method): more than 10 times

CC#N [acetonitrile]
minimal effective concentration as stabilizing ligand (E. coli [3]; preliminary tests, equals 0.5% V/V): 0.1 M
